Holding throughout (test): biochemical
The target of experiment [1] is T1, ZmDRIK1 (DROUGHT RESPONSIVE INACTIVE KINASE 1), kinase domain (Zea mays, UniProt C0P4K9).
T1 construct: gene ZEAMMB73_Zm00001d028770; ZmDRIK1-KD R187-S514 (kinase domain)
T1 sequence (C0P4K9 187-514): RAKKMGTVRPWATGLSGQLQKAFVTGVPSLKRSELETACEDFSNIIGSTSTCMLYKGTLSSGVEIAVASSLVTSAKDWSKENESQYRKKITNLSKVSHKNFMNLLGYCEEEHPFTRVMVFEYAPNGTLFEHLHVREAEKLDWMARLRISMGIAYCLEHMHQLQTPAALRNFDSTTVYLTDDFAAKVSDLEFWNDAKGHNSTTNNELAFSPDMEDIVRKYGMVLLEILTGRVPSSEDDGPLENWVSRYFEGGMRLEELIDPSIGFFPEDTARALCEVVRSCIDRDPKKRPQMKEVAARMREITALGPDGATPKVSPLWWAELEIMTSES
The note with it: read-out: dTm B, sheet ZmDRIK1-R187-S514;; DSF, Boltzmann fit, 0.1% DMSO.

The target of experiment [2] is T2, ZmDRIK1-R187-P492 (Zea mays, UniProt C0P4K9).
T2 construct: kinase domain, R187-P492
T2 sequence (C0P4K9 1-514): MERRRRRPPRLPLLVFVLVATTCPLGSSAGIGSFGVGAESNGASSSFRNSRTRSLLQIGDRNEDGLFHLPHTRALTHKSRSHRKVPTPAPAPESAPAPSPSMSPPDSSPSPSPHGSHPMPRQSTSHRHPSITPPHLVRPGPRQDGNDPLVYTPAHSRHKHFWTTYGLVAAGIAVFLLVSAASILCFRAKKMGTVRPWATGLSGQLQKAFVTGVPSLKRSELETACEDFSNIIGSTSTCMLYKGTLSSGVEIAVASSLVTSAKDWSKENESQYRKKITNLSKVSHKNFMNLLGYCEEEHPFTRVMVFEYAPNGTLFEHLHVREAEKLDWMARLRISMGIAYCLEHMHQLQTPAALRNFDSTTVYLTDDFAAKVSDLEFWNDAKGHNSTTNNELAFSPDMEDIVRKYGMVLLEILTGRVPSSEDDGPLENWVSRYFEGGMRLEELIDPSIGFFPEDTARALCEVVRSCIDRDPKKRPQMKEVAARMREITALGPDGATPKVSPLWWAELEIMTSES
The note with it: read-out: dTm B, DSF, Boltzmann fit, 0.1% DMSO.

Experiment [3] concerns the target T3, ZmDRIK1-K217-S514 (Zea mays, UniProt C0P4K9).
T3 construct: kinase domain, K217-S514
T3 sequence (C0P4K9 1-514): T2 sequence (C0P4K9 1-514)
The note with it: read-out: dTm B, sheet ZmDRIK1-K217-S514;; DSF, Boltzmann fit, 0.1% DMSO.

The target in experiment [4] is T4, ZmDRIK1-K217-P492 (Zea mays, UniProt C0P4K9).
T4 construct: kinase domain, K217-P492
T4 sequence (C0P4K9 1-514): T2 sequence (C0P4K9 1-514)
Particulars: read-out: dTm B, sheet ZmDRIK1-K217-P492;; DSF, Boltzmann fit, 0.1% DMSO.

This is an account of results in publication PMC7158045 (BMC Plant Biology, 2020).

Counter-ions that a name gives are not always drawn.

On to `O=C1NC(=O)/C(=C/c2ccc3nccc(-c4ccncc4)c3c2)S1` [GSK1059615], for which the ΔTm at 10 µM is -0.862 °C in experiment [1], -0.283 °C in experiment [2], -0.279 °C in experiment [3] and -0.796 °C in experiment [4].
As for `C#Cc1cccc(Nc2ncnc3cc(OC)c(OCCCCCCC(=O)NO)cc23)c1` [CUDC-101], the ΔTm at 10 µM in experiment [1] is -0.684 °C; in experiment [2], -0.186 °C; in experiment [3] it was -0.263 °C; in experiment [4], -1.03 °C.
Consider `COCC(=O)NC/C=C/c1ccc2ncnc(Nc3ccc(Oc4ccc(C)nc4)c(C)c3)c2c1` [CP-724714], for which the ΔTm at 10 µM is -0.904 °C in experiment [1], -0.193 °C in experiment [2], -0.357 °C in experiment [3] and -1.14 °C in experiment [4].
In the case of `CN[C@@H]1C[C@H]2O[C@@](C)([C@@H]1OC)n1c3ccccc3c3c4c(c5c6ccccc6n2c5c31)C(=O)NC4` [Staurosporine], the ΔTm at 10 µM is -0.601 °C in experiment [1], -0.154 °C in experiment [2], -0.232 °C in experiment [3] and -0.631 °C in experiment [4].
On to `Cc1cn(-c2cc(NC(=O)c3ccc(C)c(Nc4nccc(-c5cccnc5)n4)c3)cc(C(F)(F)F)c2)cn1` [Nilotinib (AMN-107)], for which the ΔTm at 10 µM in experiment [1] was -19.8 °C; in experiment [2], -5.14 °C; in experiment [3], -2.84 °C; in experiment [4] it was -9.25 °C.
As to `Oc1cc(O)cc(/C=C/c2ccc(O)c(O)c2)c1` [Piceatannol], the ΔTm at 10 µM was -0.69 °C in experiment [1], 0.733 °C in experiment [2], 1.1 °C in experiment [3] and -0.567 °C in experiment [4].
Consider `CS(=O)(=O)N1CCN(Cc2cc3nc(-c4cccc5[nH]ncc45)nc(N4CCOCC4)c3s2)CC1` [GDC-0941], for which the ΔTm at 10 µM was -0.702 °C in experiment [1], -0.181 °C in experiment [2], -0.203 °C in experiment [3] and -0.665 °C in experiment [4].
Turning to `O=C(O)c1ccc(-c2c[nH]c3ncc(-c4ccccc4)cc23)cc1C1CCCC1` [GSK650394], the ΔTm at 10 µM was -0.785 °C in experiment [1], -0.485 °C in experiment [2], -0.353 °C in experiment [3] and -1.03 °C in experiment [4].
With `CC(=O)c1c(C)c2cnc(Nc3ccc(N4CCNCC4)cn3)nc2n(C2CCCC2)c1=O` [Palbociclib (PD-0332991) HCl], the ΔTm at 10 µM in experiment [1] is -0.906 °C; in experiment [2], -0.154 °C; in experiment [3], -0.31 °C; in experiment [4] it was -0.775 °C.
For `FC(F)c1nc2ccccc2n1-c1nc(N2CCOCC2)nc(N2CCOCC2)n1` [ZSTK474], the ΔTm at 10 µM is -1.02 °C in experiment [1], -0.113 °C in experiment [2], -0.199 °C in experiment [3] and -0.762 °C in experiment [4].
For `C[C@@H]1COCCN1c1cc(C2(S(C)(=O)=O)CC2)nc(-c2cccc3[nH]ccc23)n1` [AZ20], the ΔTm at 10 µM in experiment [1] is -0.953 °C; in experiment [2], -0.0341 °C; in experiment [3], -0.493 °C; in experiment [4], -0.913 °C.
In the same order, the values of `O=C(NCCO)c1cccc(-c2cc(Nc3ccc(OC(F)(F)F)cc3)ncn2)c1` [GNF-5] are -0.0553 °C, 1.16 °C, 0.543 °C and -0.507 °C.
As for `Cc1cc(CN2CCN(c3c(Br)cnc4nc(-c5ccc(N6CCN(C)CC6)cc5)[nH]c34)CC2)no1` [CCT137690], the ΔTm at 10 µM in experiment [1] is -1.09 °C; in experiment [2], -0.157 °C; in experiment [3], -0.286 °C; in experiment [4] it was -0.814 °C.
Consider `Nc1nccc(Oc2ccc(NC(=O)c3c[nH]cc(-c4ccc(F)cc4)c3=O)cc2F)c1Cl` [BMS-794833], for which the ΔTm at 10 µM in experiment [1] was -1.96 °C; in experiment [2], 0.213 °C; in experiment [3] it was -19 °C; in experiment [4], -0.717 °C.
`Cn1cc(-c2cnn3c(N)c(Br)c([C@@H]4CCCNC4)nc23)cn1` [MK-8776 (SCH 900776)]: the ΔTm at 10 µM in experiment [1] is -0.736 °C; in experiment [2], -0.226 °C; in experiment [3] it was -0.293 °C; in experiment [4], -0.951 °C.
In the same order, the values of `COc1cc2c(Oc3ccc4[nH]c(C)cc4c3F)ncnc2cc1OCCCN1CCCC1` [Cediranib (AZD2171)] are -0.769 °C, -0.191 °C, -0.229 °C and -1.09 °C.
In the same order, the values of `CC(C)(O)CC(=O)NCCn1ccc2ncnc(Nc3ccc(Oc4cccc(C(F)(F)F)c4)c(Cl)c3)c21` [TAK-285] are -25.6 °C, 0.579 °C, 1.35 °C and -0.527 °C.
As for `Nc1ncnc2c1c(-c1cccc(OCc3ccccc3)c1)cn2C1CC(CN2CCCC2)C1` (stereo in doubt) [NVP-ADW742], the ΔTm at 10 µM in experiment [1] was -1.07 °C; in experiment [2] it was -0.18 °C; in experiment [3], -0.731 °C; in experiment [4], -0.671 °C.
For the compound `O=c1cc(CN2CCOCC2)occ1OCCCCCSc1ccnc2cc(C(F)(F)F)ccc12` [EHT 1864], the ΔTm at 10 µM in experiment [1] was -0.648 °C; in experiment [2] it was -0.298 °C; in experiment [3] it was -0.387 °C; in experiment [4], -0.4 °C.
As for `O=C(NC[C@H](O)CO)c1ccncc1Nc1ccc(I)cc1F` [Pimasertib (AS-703026)], the ΔTm at 10 µM in experiment [1] was -0.651 °C; in experiment [2] it was -0.33 °C; in experiment [3], -0.594 °C; in experiment [4], -0.841 °C.
Consider `O=C1NC(=O)/C(=C/c2cccc(C(F)(F)F)c2)S1` [SMI-4a], for which the ΔTm at 10 µM in experiment [1] was -0.708 °C; in experiment [2] it was 0.139 °C; in experiment [3] it was -0.218 °C; in experiment [4], -1.12 °C.
Consider `COc1cc2ncc(-c3ccccc3)nc2cc1OC` [Tyrphostin AG 1296], for which the ΔTm at 10 µM is -0.879 °C in experiment [1], -0.166 °C in experiment [2], -0.375 °C in experiment [3] and -0.341 °C in experiment [4].
Regarding `CN1CCN(c2cccc(Nc3nc4c(-c5ccc(S(C)(=O)=O)cc5)cccn4n3)c2)CC1` [CEP-33779], the ΔTm at 10 µM in experiment [1] was -0.54 °C; in experiment [2], -0.284 °C; in experiment [3], -0.33 °C; in experiment [4], -0.95 °C.
In the case of `NC1(c2ccc(-c3nc4ccn5c(=O)[nH]nc5c4cc3-c3ccccc3)cc2)CCC1` [MK-2206 2HCl], the ΔTm at 10 µM in experiment [1] was -1.02 °C; in experiment [2] it was -0.104 °C; in experiment [3], -0.181 °C; in experiment [4] it was -0.178 °C.
Regarding `COc1ccc(-c2nc(N3CCOCC3)c3sc(CN(C)c4ncc(C(=O)NO)cn4)cc3n2)cn1` [CUDC-907], the ΔTm at 10 µM in experiment [1] is -0.531 °C; in experiment [2], -0.136 °C; in experiment [3], -0.228 °C; in experiment [4], -1.08 °C.
`CNC(=O)c1c(F)cccc1Nc1nc(Nc2cc3c(ccn3C(=O)CN(C)C)cc2OC)nc2[nH]ccc12` [GSK1838705A]: the ΔTm at 10 µM is -0.961 °C in experiment [1], -0.292 °C in experiment [2], -0.398 °C in experiment [3] and -0.578 °C in experiment [4].
`CC(C)N(CCC(=O)c1ccc2ccccc2c1)Cc1ccccc1` [ZM 39923 HCl]: the ΔTm at 10 µM in experiment [1] was -1.58 °C; in experiment [2] it was -0.636 °C; in experiment [3], -0.827 °C; in experiment [4] it was -2.03 °C.
Taken in the same sequence, the figures for `CC1=C(C(=O)Nc2cc3cn[nH]c3cc2F)C(c2ccc(C(F)(F)F)cc2)CC(=O)N1` (stereo not drawn) [GSK429286A] were -0.758 °C, -0.447 °C, -0.373 °C and -1.02 °C.
In the same order, the values of `Cc1cc(Nc2nc(N[C@@H](C)c3ccc(F)cc3)c(C#N)cc2F)n[nH]1` [AZ 960] are -0.939 °C, -0.311 °C, -0.27 °C and -0.533 °C.
Taken in the same sequence, the figures for `Clc1ccc(Nc2nnc(Cc3ccncc3)c3ccccc23)cc1` [Vatalanib (PTK787) 2HCl] were -0.775 °C, -0.124 °C, -0.391 °C and -1.11 °C.
